Where a SMILES comes first, the peptide text is derived from it.
Legend:
[1] = test system: DLG1; assay: Quantitative RT-PCR of downstream gene DLG1 in UM-UC-3 cells; format: cell-based, human; conditions: UM-UC-3 cells transfected with siRNA, compared with siEGFP
Method: (§1) UM-UC-3 cells were transfected with siRNA against DEPDC1 (si-DEPDC1), ZNF224 (si-ZNF224-2) or EGFP (control siRNA). The target sequences of the synthetic oligo-duplex for siRNA against DEPDC1 (Sigma Aldrich) were as follows: si-DEPDC1,5′-CCAAAGUUCCGUAGUCUAA-3′(SEQ ID NO: 75), ZNF224 (si-ZNF224-2) or EGFP as described in “RNA interference assay” section.
(§2) Total RNAs were extracted from each sample at 12 hours and 24 hours after the transfection, labeled with Cy5 (for si-DEPDC1- and si-ZNF224-2-transfected cells) or Cy3 (for si-EGFP-transfected cells), and subjected to cohybridization onto cDNA microarrayslides containing 36468 cDNA or ESTs as described previously (Takata R, et al., Clin Cancer Res 2005 11:2625-36). After normalization of the data, it was excluded genes from further analysis when Cy5 and Cy3 dyes yielded signals intensities lower than the cut-off value. For other genes, the Cy5/Cy3 ratio was calculated using the raw data of each samples. […] Validation of candidate downstream genes of both DEPDC1 and ZNF224 was carried out with quantitative RT-PCR analysis using the SYBR green dye (Rhoche) and the same amplified RNAs from UM-UC-3 cells used for cDNA microarray experiments, with each gene-specific primer as follows;
(§3) All experiments were performed in duplicate. The calculated quantity of the target gene for each sample was then divided by the average calculated quantity of beta 2-microglobulin (beta 2-MG) corresponding to each sample to give a relative expression of the target gene for each sample

[2] = test system: A20 (TNFAIP3); assay: Quantitative RT-PCR of downstream gene A20 in UM-UC-3 cells; format: cell-based, human; conditions: UM-UC-3 cells transfected with siRNA, compared with siEGFP
Method: as §1
as §2, with “After normalization of the data, it was excluded genes from further analysis when Cy5 and Cy3 dyes yielded signals intensities lower than the cut-off value.” left out
as §3

[3] = test system: ZNF224 transcript; assay: Semiquantitative RT-PCR of knockdown effect of ZNF224 siRNA expression vectors in UM-UC-3 cells; format: cell-based, human; conditions: compared with si-EGFP control
Method: It has been previously established a vector-based RNA interference (RNAi) system, psiU6BX3.0 that was designed to express small interfering RNAs (siRNA) in mammalian cells (Shimokawa T, et al., Cancer Res 2003 63:6116-20). Plasmids designed to express siRNA to ZNF224 were prepared by cloning of double-stranded oligonucleotides into the BbsI site of psiU6BX vectors. The target sequences of the synthetic oligonucleotides for RNAi were as follows:
si-ZNF224#2: 5′-CCGCAGGAACACATCAAGA-3′ (SEQ ID NO: 10) for the ZNF224-specific sequence. DNA sequences of all constructs were confirmed by DNA sequencing. […] To evaluate the knockdown effect of siRNAs by semi-quantitative RT-PCR with specific primers (see below), total RNAs were extracted from the transfected cells after 4-day incubation with neomycin (Geneticin, Invitrogen). […]
5′-[…]-3′ (SEQ ID NO: 13) and 5′-[…]-3′ (SEQ ID NO: 14) for GAPDH as a quantitative control. The transfected UM-UC-3 cells were cultured for 21 or 14 days in the presence of 1.0 mg/ml of neomycin, and the number of colonies were counted by Giemsa staining. Viability of UM-UC-3 cells was evaluated by 3-(4,5-dimethylthiazol-2-yl)-2,5-diphenyltetrazolium bromide (MTT) assay at 14 days after the treatment of neomycin with cell counting kit-8 according to manufacturer's recommendation (Wako, Osaka, Japan). […]

[4] = test system: UM-UC-3 cells; assay: MTT and colony-formation assays of UM-UC-3 cells transfected with siRNA expression vectors; format: cell-based, human; conditions: UM-UC-3 cells transfected with siRNA expression vector, neomycin selection
Description: si-ZNF224#2: 5′-CCGCAGGAACACATCAAGA-3′ (SEQ ID NO: 10) for the ZNF224-specific sequence. DNA sequences of all constructs were confirmed by DNA sequencing. Eight-micrograms each of siRNA-expression vector were transfected into UM-UC-3 cells (1×10^6 cells per 10 cm-dish), respectively, using FuGENE6 transfection reagent (Roche) according to the supplier's recommendations. To evaluate the knockdown effect of siRNAs by semi-quantitative RT-PCR with specific primers (see below), total RNAs were extracted from the transfected cells after 4-day incubation with neomycin (Geneticin, Invitrogen). The specific primer sets for RT-PCR are as follows; 5′-[…]-3′ (SEQ ID NO: 11) and 5′-[…]-3′ (SEQ ID NO: 12) for ZNF224;
5′-[…]-3′ (SEQ ID NO: 13) and 5′-[…]-3′ (SEQ ID NO: 14) for GAPDH as a quantitative control. The transfected UM-UC-3 cells were cultured for 21 or 14 days in the presence of 1.0 mg/ml of neomycin, and the number of colonies were counted by Giemsa staining. Viability of UM-UC-3 cells was evaluated by 3-(4,5-dimethylthiazol-2-yl)-2,5-diphenyltetrazolium bromide (MTT) assay at 14 days after the treatment of neomycin with cell counting kit-8 according to manufacturer's recommendation (Wako, Osaka, Japan). Absorbance at 570 nm wavelength was measured with a Microplate Reader 550 (Bio-Rad, Hercules, Calif.). These experiments were performed in triplicate.

[5] = test system: NHDF-Ad cells; assay: MTT assay of cell viability of normal human dermal fibroblasts treated with peptide; format: cell-based; conditions: DEPDC1 and ZNF224 hardly detectable
Method: (§4) UM-UC-3 and normal human dermal fibroblast-derived NHDF-Ad cell lines were incubated with the 11R peptides at the concentration of 0, 1, 2, or 3 micromol/L for 5 days. Each peptide was added at every 24 hours at the appropriate concentrations and the viability of cells was evaluated by MTT assay at every day after the treatment.
(§5) To examine the effect of DEPDC1611-628 peptide on cell growth of UM-UC-3 and NHDF cells, the cells were incubated with the DEPDC1611-628 or scramble peptides at the concentration of 0, 1, 2, or 3 micro M for 5 days, respectively. Each peptide was added at every 24 hours at the appropriate concentrations and the viability of cells was evaluated by MTT assay every day. Absorbance at 570 nm wavelength was measured with a Microplate Reader 550 (Bio-Rad). These experiments were performed in triplicate.

[6] = test system: UM-UC-3 cells; assay: MTT assay of cell viability of UM-UC-3 bladder cancer cells treated with 11R peptides; format: cell-based, human; conditions: UM-UC-3 cells; peptide 1, 2 or 3 micro M added every 24 hours for 5 days
Method: as §4, §5

[7] = target: T1, DEPDC1-ZNF224 complex (Homo sapiens, UniProt Q9NZL3, H562R/M118V); assay: Immunoprecipitation of exogenous DEPDC1-HA and ZNF224-FLAG complex in peptide-treated COS7 cells; format: cell-based
T1 construct: expressed in transfected cells; host or cells: COS7 cells, transiently co-transfected (pCAGGS-type vectors)
T1 sequence (Q9NZL3 whole entry M118V/H562R, one chain of several): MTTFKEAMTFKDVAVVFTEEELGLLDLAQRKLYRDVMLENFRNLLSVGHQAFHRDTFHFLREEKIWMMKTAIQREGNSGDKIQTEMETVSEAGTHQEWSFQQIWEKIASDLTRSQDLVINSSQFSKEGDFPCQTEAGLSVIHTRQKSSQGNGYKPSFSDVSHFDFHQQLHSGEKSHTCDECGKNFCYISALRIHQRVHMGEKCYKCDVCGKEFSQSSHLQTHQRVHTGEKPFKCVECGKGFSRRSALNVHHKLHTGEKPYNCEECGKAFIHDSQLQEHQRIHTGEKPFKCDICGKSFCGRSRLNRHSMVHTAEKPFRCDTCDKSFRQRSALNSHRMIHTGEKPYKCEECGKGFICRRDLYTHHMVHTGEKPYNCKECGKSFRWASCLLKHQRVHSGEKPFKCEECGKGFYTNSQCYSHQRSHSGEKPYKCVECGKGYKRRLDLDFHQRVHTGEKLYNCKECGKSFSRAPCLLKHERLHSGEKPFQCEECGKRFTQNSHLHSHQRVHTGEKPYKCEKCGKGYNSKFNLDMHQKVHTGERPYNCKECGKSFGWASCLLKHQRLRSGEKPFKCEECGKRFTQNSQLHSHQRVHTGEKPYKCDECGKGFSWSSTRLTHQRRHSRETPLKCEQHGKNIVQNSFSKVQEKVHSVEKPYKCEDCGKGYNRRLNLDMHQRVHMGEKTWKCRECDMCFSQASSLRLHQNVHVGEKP
Method: To confirm the interaction between DEPDC1 and ZNF224 in bladder cancer cells and identify the ZNF224-binding region in DEPDC1, the immunoprecipitation experiment was carried out as follows. First, it was confirmed interaction between endogenous DEPDC1 and exogenous ZNF224 by immunoprecipitation experiments using anti-DEPDC1 polyclonal antibody for immunoprecipitation and anti-FLAGM2 antibody (Amersham) for immunoblotting. To further determine the ZNF224-binding region in DEPDC1, it was cloned six partial constructs of DEPDC1 (DEPDC11-147, DEPDC1141-300, DEPDC1177-597, DEPDC1300-669, DEPDC1587-740 and DEPDC1654-811) into appropriate sites of COOH-terminal HA-tagged pCAGGS vector. The nucleotide sequence of each clones were determined with an ABI Prism 3700 DNA sequencer (Applied Biosystems, Foster City, Calif.), using each primer. Cell extracts from Cos7 cell line, transfected with each of plasmids expressing one of these six partial segments of DEPDC1, were precleared by incubation at 4 degrees C. for 1 hour with 100 micro 1 of protein G-agarose beads in final volumes of 2 mL of immunoprecipitation buffer (0.5% NP40, 50 mmol/L Tris-HCl, 150 mmol/L NaCl) in the presence of proteinase inhibitor. After centrifugation at 1,000 rpm for 5 minutes at 4 degrees C., the supernatants were incubated at 4 degrees C. with anti-HA rat for 1 hours. After the beads were collected from each sample by centrifugation at 5,000 rpm for 2 minutes and washed six times with 1 mL of immunoprecipitation buffer, the washed beads were re-suspended in 50 uL of Laemmli sample buffer and boiled for 3 minutes before the proteins were separated on 10% SDS-PAGE gels. Immunoblot was done using anti-HA rat antibody and anti-FLAGM2 monoclonal antibody, respectively (Sigma-Aldrich Co., St. Louis, Mo.).
To examine the effect of these polyarginine (11R)-linked peptides on inhibition of the DEPDC1-ZNF224 complex formation, they were co-transfected with DEPDC1 and ZNF224 constructs into COS7 cells. […] Immunoprecipitation were performed according to methods as described in “Identification of the ZNF224-binding regions in DEPDC1 protein” section.

Row | Compound | DLG1 transcript (quantitative RT-PCR) [1] | A20 transcript (quantitative RT-PCR) [2] | amount of ZNF224 transcript (knockdown effect) [3] | growth of UM-UC-3 cell (MTT and colony-formation assays) [4] | other results
1 | 5′-CCAAAGUUCCGUAGUCUAA-3′ [si-DEPDC1] | time-dependent increase | time-dependent increase |  |  | 
2 | 5′-CCGATTTGGATGATGAAGA-3′ [si-ZNF224-1] |  |  | significantly suppressed | marked suppression growth | 
3 | 5′-CCGCAGGAACACATCAAGA-3′ [si-ZNF224-2] | time-dependent increase | time-dependent increase | significantly suppressed | marked suppression growth | 
4 | CC[C@H](C)[C@H](NC(=O)[C@H](CCSC)NC(=O)[C@H](CCCNC(=N)N)NC(=O)[C@H](CCSC)NC(=O)[C@H](CC(C)C)NC(=O)[C@H](CC(C)C)NC(=O)[C@H](CCC(N)=O)NC(=O)[C@H](CC(C)C)NC(=O)[C@H](CCCCN)NC(=O)[C@H](CCCNC(=N)N)NC(=O)[C@H](CCCNC(=N)N)NC(=O)[C@H](CC(N)=O)NC(=O)[C@@H]1CCCN1C(=O)[C@@H]1CCCN1C(=O)CNC(=O)CNC(=O)CNC(=O)[C@H](CCCNC(=N)N)NC(=O)[C@H](CCCNC(=N)N)NC(=O)[C@H](CCCNC(=N)N)NC(=O)[C@H](CCCNC(=N)N)NC(=O)[C@H](CCCNC(=N)N)NC(=O)[C@H](CCCNC(=N)N)NC(=O)[C@H](CCCNC(=N)N)NC(=O)[C@H](CCCNC(=N)N)NC(=O)[C@H](CCCNC(=N)N)NC(=O)[C@H](CCCNC(=N)N)NC(=O)[C@@H](N)CCCNC(=N)N)C(=O)N[C@@H](CO)C(=O)N[C@@H](CCCNC(=N)N)C(=O)N[C@@H](CCSC)C(=O)N[C@@H](CO)C(=O)O [11R-DEP611-628, RRRRRRRRRRR-GGG-PPNRRKLQLLMRMISRMS] (H-RRRRRRRRRRRGGGPPNRRKLQLLMRMISRMS-OH) |  |  |  |  | cell viability measured by MTT assay [5]: no significant effect on cell viability; cell viability measured by MTT assay ([5]; listed as DEPDC1611-628): no off-target effect
5 | RRRRRRRRRRR-GGG-AIDALQLCCLLLPPPNRR (RRRRRRRRRRRGGGAIDALQLCCLLLPPPNRR; An artificially synthesised dominant negative peptide) [11R-DEP598-615, 11R-linked DEPDC1 codons 598-615 peptide] |  |  |  |  | cell viability measured by MTT assay [6]: moderate suppress in cell viability in dose-dependent manner; complex formation of DEPDC1-HA and ZNF224-FLAG (immunoprecipitation) ([7]; four peptides at 3 micro M added 6 hours after transfection, twenty-four hours later): moderate effect; complex formation between exogenously expressed DEPDC1-HA and ZNF224-Flag (immunoprecipitation) ([7]; six peptides added 6 hours after transfection, immunoprecipitation fifteen hours later): slight inhibition

— patent US8975086B2, “Method for treating or preventing bladder cancer using the DEPDC1 polypeptide” (OncoTherapy Science, Inc., priority 2008, dated 2015)
